{"source": "ChEMBL document CHEMBL4732046", "about": "“A red-light-activated sulfonamide porphycene for highly efficient photodynamic therapy against hypoxic tumor” (Eur J Med Chem, 2021)", "key": {"KYSE-70 cell line": {"system": "KYSE-70 cell line", "assay": "Photocytotoxicity against human KYSE-70 cells assessed as reduction in cell viability irradiated with 640 +/- 15 nm red LED for 4 hrs measured after 24 hrs under hypoxic condition by MTT assay", "assay_type": "functional, cell-based", "conditions": "KYSE-70, light or radiation study"}, "B16 [1]": {"system": "B16", "assay": "Antiproliferative activity against mouse B16 cells assessed as inhibition of cell proliferation irradiated with 640 +/- 15 nm red LED for 4 hrs in presence of 30 uM D-mannitol measured after 24 hrs under hypoxic condition by MTT assay", "assay_type": "functional, cell-based"}, "[2]": {"assay": "Drug uptake in mouse B16 cells mitochondria incubated for 24 hrs by mito-tracker green based confocal microscopic method", "assay_type": "ADME", "conditions": "b16, 24 h"}, "A-375 [3]": {"system": "A-375", "assay": "Induction of intracellular reactive oxygen species production in human A-375 cells irradiated with 640 +/- 15 nm red LED for 1 hrs measured after 4 hrs by DCFH-DA probe based flow cytometry", "assay_type": "functional, cell-based", "conditions": "dose nM <=300, time 4.0 hrs"}, "B16 [4]": {"system": "B16", "assay": "Induction of intracellular reactive oxygen species production in mouse B16 cells irradiated with 640 +/- 15 nm red LED for 1 hrs measured after 4 hrs by DCFH-DA probe based flow cytometry", "assay_type": "functional, cell-based", "conditions": "dose nM <=400, time 4.0 hrs"}, "A-375 [5]": {"system": "A-375", "assay": "Induction of morphological changes in human A-375 cells assessed as nuclear shrinkage at 100 to 300 nM incubated for 24 hrs by Hoechst 33258 staining based assay", "assay_type": "functional, cell-based", "conditions": "dose 100-300 nM"}, "A-375 [6]": {"system": "A-375", "assay": "Induction of apoptosis in human A-375 cells assessed as apoptotic cells at 100 nM irradiated with 640 +/- 15 nm red LED for 1 hrs after 24 hrs by Annexin V-FITC/propidium iodide staining based flow cytometric analysis relative to control", "assay_type": "functional, cell-based"}, "A-375 [7]": {"system": "A-375", "assay": "Induction of apoptosis in human A-375 cells assessed as increase in Bax level at 100 to 300 nM irradiated with 640 +/- 15 nm red LED for 1 hrs measured after 24 hrs by Western blot analysis", "assay_type": "functional, cell-based", "conditions": "dose 100-300 nM"}, "B16 [8]": {"system": "B16", "assay": "Induction of apoptosis in mouse B16 cells assessed as increase in cytochrome c level at 200 to 400 nM irradiated with 640 +/- 15 nm red LED for 1 hrs measured after 24 hrs by Western blot analysis", "assay_type": "functional, cell-based", "conditions": "dose 200-400 nM"}, "[9]": {"assay": "Toxicity in BALB/c mouse xenografted with human A-375 cells assessed as body weight at 50 uM, IT once every 2 days for 2 weeks followed every dosing irradiated with 640 +/- 15 nm red LED for 4 hrs", "conditions": "in vivo, other, 336 h"}, "[10]": {"assay": "Toxicity in C57BL/6 mouse model assessed as change in platelet count measured after 14 days", "conditions": "336 h, time 14 day"}, "[11]": {"assay": "Toxicity in C57BL/6 mouse assessed as effect on lactate dehydrogenase level measured upto 14 days", "conditions": "in vivo, 336 h, time <=14 day"}, "B16 [12]": {"system": "B16", "assay": "Antitumor activity against mouse B16 cells xenografted in C57BL/6 mouse assessed as tumor growth inhibition by measuring nuclear TUNEL-positive treated at high dose intratumorally once every 2 days for 2 weeks followed every dosing irradiated with 640 +/- 15 nm red LED for 4 hrs measured after 14 days treatment", "assay_type": "functional, cell-based", "conditions": "time 14.0 day"}}, "note": "Active and inactive are the calls of the source. The calls are words filed in the database; no cut-off is given here."}
{"smiles": "CC(C)(C)C1=Cc2nc1ccc1[nH]c(cc1S(=O)(=O)NCCOCCO)c1nc(ccc3[nH]c2cc3C(C)(C)C)C(C(C)(C)C)=C1", "values": [{"measurement": "DC50", "setting": "KYSE-70 cell line", "value": 51, "unit": "nM"}, {"measurement": "Activity", "setting": "B16 [1]", "value": "inactive"}, {"measurement": "Drug uptake", "setting": "[2]", "value": "Active"}, {"measurement": "Activity", "setting": "A-375 [3]", "value": "Dose-dependent effect"}, {"measurement": "Activity", "setting": "B16 [4]", "value": "Dose-dependent effect"}, {"measurement": "Activity", "setting": "A-375 [5]", "value": "Active"}, {"measurement": "Activity", "setting": "A-375 [6]", "value": "Active"}, {"measurement": "Activity", "setting": "A-375 [7]", "value": "Active"}, {"measurement": "Activity", "setting": "B16 [8]", "value": "Active"}, {"measurement": "Activity", "setting": "[9]", "value": "Non-Toxic"}, {"measurement": "Activity", "setting": "[10]", "value": "Non-Toxic"}, {"measurement": "Activity", "setting": "[11]", "value": "Non-Toxic"}, {"measurement": "Activity", "setting": "B16 [12]", "value": "Active"}]}
